Reference: PubChem BioAssay (NCI)
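Assay format: 96-well plates, 48-hour exposure. TGI is the concentration that stops growth completely.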

Tests used:
Assay in all cases: NCI-60 cell line screen, 48 h
[1] = tested on: XF 498 CNS
[2] = tested on: HCT-15 colon
[3] = tested on: MALME-3M melanoma
[4] = tested on: NCI-H460 lung
[5] = tested on: M14 melanoma
[6] = tested on: SF-295 CNS
[7] = tested on: DMS 114 small cell lung
[8] = tested on: HL-60(TB) leukemia
[9] = tested on: HOP-62 NSCLC
[10] = tested on: CAKI-1 renal
[11] = tested on: DLD-1 colon
[12] = tested on: K-562 leukemia
[13] = tested on: KM20L2 colon
[14] = tested on: A549 NSCLC
[15] = tested on: EKVX NSCLC
[16] = tested on: HCC-2998 colon
[17] = tested on: COLO 205 colon
[18] = tested on: HT29 colon
[19] = tested on: NCI-H522 lung
[20] = tested on: LXFL 529 NSCLC
[21] = tested on: KM12 colon
[22] = tested on: ACHN renal
[23] = tested on: SN12C renal
[24] = tested on: SF-268 CNS
[25] = tested on: SNB-75 CNS
[26] = tested on: UACC-257 melanoma
[27] = tested on: SK-MEL-28 melanoma
[28] = tested on: SK-OV-3 ovarian
[29] = tested on: OVCAR-5 ovarian
[30] = tested on: UO-31 renal
[31] = tested on: SNB-19 CNS
[32] = tested on: OVCAR-4 ovarian
[33] = tested on: SW-620 colon
[34] = tested on: TK-10 renal
[35] = tested on: OVCAR-8 ovarian
[36] = tested on: NCI-H226 lung
[37] = tested on: UACC-62 melanoma
[38] = tested on: HCT-116 colon
[39] = tested on: SK-MEL-5 melanoma
[40] = tested on: MOLT-4 leukemia
[41] = tested on: U251 CNS
[42] = tested on: HOP-92 NSCLC
[43] = tested on: CCRF-CEM leukemia
[44] = tested on: OVCAR-3 ovarian
[45] = tested on: M19-MEL melanoma
[46] = tested on: SF-539 CNS
[47] = tested on: A498 renal
[48] = tested on: RPMI-8226 leukemia
[49] = tested on: IGROV1 ovarian
[50] = tested on: SK-MEL-2 melanoma
[51] = tested on: DMS 273 small cell lung
[52] = tested on: NCI-H23 lung
[53] = tested on: LOX IMVI melanoma
[54] = tested on: 786-0 renal
[55] = tested on: SR leukemia
[56] = tested on: RXF 393 renal

## CC(C)OP(=O)(OC(C)C)c1nc(-c2ccccc2)n(-c2ccc([N+](=O)[O-])cc2)n1
[1]
  TGI: > 100 µM
[2]
  TGI: > 100 µM
[3]
  TGI: > 100 µM
[4]
  TGI: > 100 µM
[5]
  TGI: > 100 µM
[6]
  TGI: > 100 µM
[7]
  TGI: > 100 µM
[8]
  TGI: > 100 µM
[9]
  TGI: > 100 µM
[10]
  TGI: > 100 µM
[11]
  TGI: > 100 µM
[12]
  TGI: > 100 µM
[13]
  TGI: > 100 µM
[14]
  TGI: > 100 µM
[15]
  TGI: > 100 µM
[16]
  TGI: > 100 µM
[17]
  TGI: > 100 µM
[18]
  TGI: > 100 µM
[19]
  TGI: > 100 µM
[20]
  TGI: > 100 µM
[21]
  TGI: > 100 µM
[22]
  TGI: > 100 µM
[23]
  TGI: > 100 µM
[24]
  TGI: > 100 µM
[25]
  TGI: > 100 µM
[26]
  TGI: > 100 µM
[27]
  TGI: > 100 µM
[28]
  TGI: > 100 µM
[29]
  TGI: > 100 µM
[30]
  TGI: > 100 µM
[31]
  TGI: > 100 µM
[32]
  TGI: > 100 µM
[33]
  TGI: > 100 µM
[34]
  TGI: > 100 µM
[35]
  TGI: > 100 µM
[36]
  TGI: > 100 µM
[37]
  TGI: > 100 µM
[38]
  TGI: > 100 µM
[39]
  TGI: > 100 µM
[40]
  TGI: > 100 µM
[41]
  TGI: > 100 µM
[42]
  TGI: > 100 µM
[43]
  TGI: > 100 µM
[44]
  TGI: > 100 µM
[45]
  TGI: > 100 µM
[46]
  TGI: > 100 µM
[47]
  TGI: > 100 µM
[48]
  TGI: > 100 µM
[49]
  TGI: > 100 µM
[50]
  TGI: > 100 µM
[51]
  TGI: > 100 µM
[52]
  TGI: > 100 µM

## Cc1ccc(/C(O)=C/c2nc3c(nc2NC24CC5CC(CC(C5)C2)C4)c(=O)oc2ccccc23)cc1
[1]
  TGI: > 100 µM
[2]
  TGI: > 100 µM
[3]
  TGI: > 100 µM
[4]
  TGI: > 100 µM
[5]
  TGI: > 100 µM
[7]
  TGI: > 100 µM
[8]
  TGI: > 100 µM
[9]
  TGI: > 100 µM
[10]
  TGI: > 100 µM
[11]
  TGI: > 100 µM
[12]
  TGI: > 100 µM
[13]
  TGI: > 100 µM
[14]
  TGI: > 100 µM
[15]
  TGI: > 100 µM
[16]
  TGI: > 100 µM
[53]
  TGI: > 100 µM
[17]
  TGI: > 100 µM
[18]
  TGI: > 100 µM
[19]
  TGI: > 100 µM
[54]
  TGI: > 100 µM
[20]
  TGI: > 100 µM
[21]
  TGI: > 100 µM
[22]
  TGI: > 100 µM
[23]
  TGI: > 100 µM
[24]
  TGI: > 100 µM
[25]
  TGI: 70.1 µM
[26]
  TGI: > 100 µM
[27]
  TGI: > 100 µM
[28]
  TGI: > 100 µM
[29]
  TGI: > 100 µM
[30]
  TGI: > 100 µM
[31]
  TGI: > 100 µM
[33]
  TGI: > 100 µM
[34]
  TGI: > 100 µM
[35]
  TGI: > 100 µM
[55]
  TGI: > 100 µM
[36]
  TGI: > 100 µM
[37]
  TGI: > 100 µM
[38]
  TGI: > 100 µM
[56]
  TGI: > 100 µM
[39]
  TGI: > 100 µM
[40]
  TGI: > 100 µM
[41]
  TGI: > 100 µM
[42]
  TGI: > 100 µM
[43]
  TGI: > 100 µM
[44]
  TGI: > 100 µM
[45]
  TGI: > 100 µM
[46]
  TGI: > 100 µM
[48]
  TGI: > 100 µM
[49]
  TGI: > 100 µM
[50]
  TGI: > 100 µM
[51]
  TGI: > 100 µM
[52]
  TGI: > 100 µM
